{"source": "ChEMBL document CHEMBL1201862", "about": "“PubChem BioAssay data set” (2004)", "key": {"cells [1]": {"test": "cells", "settings": "A549"}, "[2]": {"biological_target": "T1, Heat shock factor protein 1 (Mus musculus, UniProt P38532)", "T1 sequence (P38532 whole entry)": "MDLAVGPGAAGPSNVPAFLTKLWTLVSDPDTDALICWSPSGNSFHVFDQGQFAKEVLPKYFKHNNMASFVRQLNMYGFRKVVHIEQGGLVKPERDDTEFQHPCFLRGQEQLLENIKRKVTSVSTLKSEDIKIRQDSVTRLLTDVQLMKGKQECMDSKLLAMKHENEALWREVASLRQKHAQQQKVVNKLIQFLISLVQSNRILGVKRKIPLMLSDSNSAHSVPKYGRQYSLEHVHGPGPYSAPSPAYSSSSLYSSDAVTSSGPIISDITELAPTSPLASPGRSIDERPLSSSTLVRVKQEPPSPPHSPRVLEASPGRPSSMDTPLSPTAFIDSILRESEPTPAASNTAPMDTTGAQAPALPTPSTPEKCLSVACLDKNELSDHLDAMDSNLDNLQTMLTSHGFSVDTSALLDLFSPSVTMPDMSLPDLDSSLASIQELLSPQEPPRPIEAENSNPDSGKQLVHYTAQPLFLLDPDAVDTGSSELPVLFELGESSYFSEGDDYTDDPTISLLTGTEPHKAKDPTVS", "test": "HSF1 potentiators in luciferase reporter cells, confirmation, cell-based, NIH3T3, luminescence, dose retest (AID 435004);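 further: stress induced by proteasome inhibitor MG132 added 30 min after compound; actives raise luminescence as potentiators of the MG132 stress response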", "format": "functional"}, "[3]": {"biological_target": "T2, High affinity choline transporter 1 (Homo sapiens, UniProt Q9GZV3)", "T2 sequence (Q9GZV3 whole entry)": "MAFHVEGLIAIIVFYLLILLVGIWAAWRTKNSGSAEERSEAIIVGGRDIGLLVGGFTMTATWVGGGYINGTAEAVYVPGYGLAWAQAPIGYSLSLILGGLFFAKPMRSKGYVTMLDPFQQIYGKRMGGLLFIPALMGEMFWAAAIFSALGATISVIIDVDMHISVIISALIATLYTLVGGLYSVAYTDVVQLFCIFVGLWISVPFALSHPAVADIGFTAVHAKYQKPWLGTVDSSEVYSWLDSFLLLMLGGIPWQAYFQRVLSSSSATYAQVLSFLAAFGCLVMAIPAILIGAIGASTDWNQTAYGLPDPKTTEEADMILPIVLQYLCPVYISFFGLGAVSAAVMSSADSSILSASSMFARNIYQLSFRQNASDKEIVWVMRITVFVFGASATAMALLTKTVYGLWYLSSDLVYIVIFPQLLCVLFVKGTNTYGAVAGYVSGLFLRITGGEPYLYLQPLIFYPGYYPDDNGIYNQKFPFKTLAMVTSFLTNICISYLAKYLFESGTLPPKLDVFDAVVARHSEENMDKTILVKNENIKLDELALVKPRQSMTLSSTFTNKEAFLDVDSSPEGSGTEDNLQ", "test": "CHT inhibitors, dose response, cell-based, 5-point CRC, membrane potential dye (AID 504840)", "format": "functional"}, "[4]": {"biological_target": "T3, Oxysterols receptor LXR-beta (Homo sapiens, UniProt P55055)", "T3 sequence (P55055 whole entry)": "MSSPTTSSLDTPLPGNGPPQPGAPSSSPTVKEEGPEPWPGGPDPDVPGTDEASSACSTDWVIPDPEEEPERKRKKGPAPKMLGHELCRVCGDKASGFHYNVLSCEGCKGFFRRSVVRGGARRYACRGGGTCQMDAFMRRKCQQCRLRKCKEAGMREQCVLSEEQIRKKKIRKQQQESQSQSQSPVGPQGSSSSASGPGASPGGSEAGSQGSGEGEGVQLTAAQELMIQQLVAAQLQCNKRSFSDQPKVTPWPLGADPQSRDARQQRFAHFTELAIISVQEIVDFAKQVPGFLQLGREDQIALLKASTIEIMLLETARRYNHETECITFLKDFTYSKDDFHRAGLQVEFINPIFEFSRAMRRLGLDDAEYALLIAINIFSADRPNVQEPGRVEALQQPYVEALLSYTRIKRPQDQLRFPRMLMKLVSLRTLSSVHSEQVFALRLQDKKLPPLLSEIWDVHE", "format": "functional, cell-based"}, "[5]": {"test": "Luminescence Cell-Based Dose Response HTS to Identify Activators of Luciferase Translation or Activity in H4 […] Cells. [Related pubchem assays: 1829 (Project Summary), 1814 (Primary HTS)]", "format": "functional"}, "H4": {"system": "H4", "test": "Luminescence Cell-Based Dose Response HTS to Identify Activators of 5'UTR Stem-Loop Driven Prion Protein mRNA Translation in H4 Neuroglioblastoma Cells. [Related pubchem assays: 1829 (Project Summary), 1814 (Primary HTS)]", "format": "functional", "settings": "Homo sapiens"}, "Caspase-3": {"biological_target": "T4, Caspase-3 (Homo sapiens, UniProt P42574)", "T4 sequence (P42574 whole entry)": "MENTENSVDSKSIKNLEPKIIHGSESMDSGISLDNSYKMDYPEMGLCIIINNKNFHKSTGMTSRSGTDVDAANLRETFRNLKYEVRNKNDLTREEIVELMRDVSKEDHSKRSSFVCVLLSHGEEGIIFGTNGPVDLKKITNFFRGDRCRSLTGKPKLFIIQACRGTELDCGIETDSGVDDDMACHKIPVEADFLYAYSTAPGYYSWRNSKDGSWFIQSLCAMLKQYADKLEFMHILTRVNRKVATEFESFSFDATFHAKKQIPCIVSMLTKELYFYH", "format": "functional"}, "[6]": {"biological_target": "T5, Sentrin-specific protease 7 (Homo sapiens, UniProt Q9BQF6)", "T5 sequence (Q9BQF6 whole entry)": "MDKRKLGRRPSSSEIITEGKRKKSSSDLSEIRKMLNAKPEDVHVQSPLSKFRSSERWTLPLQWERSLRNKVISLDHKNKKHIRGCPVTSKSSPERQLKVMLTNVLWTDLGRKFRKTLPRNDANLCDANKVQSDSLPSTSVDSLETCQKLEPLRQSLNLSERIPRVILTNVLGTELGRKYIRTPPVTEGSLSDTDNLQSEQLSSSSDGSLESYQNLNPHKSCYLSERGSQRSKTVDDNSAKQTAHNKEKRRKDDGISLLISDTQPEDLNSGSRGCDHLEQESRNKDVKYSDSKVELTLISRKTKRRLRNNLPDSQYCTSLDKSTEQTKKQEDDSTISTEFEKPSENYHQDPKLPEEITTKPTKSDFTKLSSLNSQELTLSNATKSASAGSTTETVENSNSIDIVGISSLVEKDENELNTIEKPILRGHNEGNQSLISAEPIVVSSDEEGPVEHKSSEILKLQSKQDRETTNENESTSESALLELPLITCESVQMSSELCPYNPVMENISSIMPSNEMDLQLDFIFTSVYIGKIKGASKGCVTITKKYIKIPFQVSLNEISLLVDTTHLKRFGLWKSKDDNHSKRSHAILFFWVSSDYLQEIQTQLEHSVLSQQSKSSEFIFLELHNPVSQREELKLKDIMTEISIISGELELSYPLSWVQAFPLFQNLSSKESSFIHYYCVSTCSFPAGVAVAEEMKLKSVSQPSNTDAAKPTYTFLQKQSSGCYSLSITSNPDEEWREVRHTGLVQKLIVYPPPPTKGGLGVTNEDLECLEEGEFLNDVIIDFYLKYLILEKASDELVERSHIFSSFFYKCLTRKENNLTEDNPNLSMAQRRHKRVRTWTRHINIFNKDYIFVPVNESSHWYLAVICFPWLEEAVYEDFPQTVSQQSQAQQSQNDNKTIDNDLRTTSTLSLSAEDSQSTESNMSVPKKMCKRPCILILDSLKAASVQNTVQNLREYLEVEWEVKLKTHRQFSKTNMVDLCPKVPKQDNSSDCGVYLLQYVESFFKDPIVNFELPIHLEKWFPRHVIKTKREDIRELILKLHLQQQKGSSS", "format": "functional"}, "[7]": {"biological_target": "T6, Sentrin-specific protease 6 (Homo sapiens, UniProt Q9GZR1)", "T6 sequence (Q9GZR1 whole entry)": "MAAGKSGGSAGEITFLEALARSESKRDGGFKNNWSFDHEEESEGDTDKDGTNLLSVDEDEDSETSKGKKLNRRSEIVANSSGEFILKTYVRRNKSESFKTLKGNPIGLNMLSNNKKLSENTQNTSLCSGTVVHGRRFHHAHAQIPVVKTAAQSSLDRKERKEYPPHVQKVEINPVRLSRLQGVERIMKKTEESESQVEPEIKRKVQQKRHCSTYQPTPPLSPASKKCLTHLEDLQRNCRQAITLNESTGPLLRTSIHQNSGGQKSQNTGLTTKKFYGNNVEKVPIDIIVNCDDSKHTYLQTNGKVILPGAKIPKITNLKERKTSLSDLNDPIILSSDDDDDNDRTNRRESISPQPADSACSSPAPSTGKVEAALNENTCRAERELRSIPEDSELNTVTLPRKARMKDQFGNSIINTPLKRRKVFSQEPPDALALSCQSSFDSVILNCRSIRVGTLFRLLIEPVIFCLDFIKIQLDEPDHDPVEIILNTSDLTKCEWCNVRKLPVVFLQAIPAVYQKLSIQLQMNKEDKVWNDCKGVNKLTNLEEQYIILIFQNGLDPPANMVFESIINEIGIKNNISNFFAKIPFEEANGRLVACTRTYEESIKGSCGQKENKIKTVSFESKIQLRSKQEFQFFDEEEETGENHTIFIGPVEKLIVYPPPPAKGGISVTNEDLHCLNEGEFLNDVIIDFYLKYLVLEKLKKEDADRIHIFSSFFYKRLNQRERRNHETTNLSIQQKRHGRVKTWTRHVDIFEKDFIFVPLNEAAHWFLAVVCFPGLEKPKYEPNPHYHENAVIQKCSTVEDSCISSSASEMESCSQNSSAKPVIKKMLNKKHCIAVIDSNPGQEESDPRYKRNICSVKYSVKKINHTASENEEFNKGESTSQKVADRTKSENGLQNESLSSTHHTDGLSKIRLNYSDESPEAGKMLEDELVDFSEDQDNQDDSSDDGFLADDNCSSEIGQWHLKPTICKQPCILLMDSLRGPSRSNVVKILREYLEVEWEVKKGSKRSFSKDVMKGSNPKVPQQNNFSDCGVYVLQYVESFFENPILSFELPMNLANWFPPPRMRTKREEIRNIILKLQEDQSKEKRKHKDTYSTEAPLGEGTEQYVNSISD", "format": "functional"}, "[8]": {"biological_target": "T7, Sentrin-specific protease 8 (Homo sapiens, UniProt Q96LD8)", "T7 sequence (Q96LD8 whole entry)": "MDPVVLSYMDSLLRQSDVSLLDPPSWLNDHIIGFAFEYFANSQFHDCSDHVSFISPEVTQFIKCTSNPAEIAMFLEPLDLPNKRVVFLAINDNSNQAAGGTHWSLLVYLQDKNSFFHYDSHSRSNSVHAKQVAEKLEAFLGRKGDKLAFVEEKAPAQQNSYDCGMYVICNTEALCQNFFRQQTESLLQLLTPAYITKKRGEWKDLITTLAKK", "format": "functional"}, "cells [9]": {"test": "cells", "settings": "HEK293"}}, "note": "Active and inactive are the calls of the source.", "data": [{"smiles": "O=C(Nc1ccc2c(c1)OCCO2)c1ccc(NC(=O)C2CCCO2)cc1", "note": "(configuration not stated)", "values": [{"measurement": "AC50", "setting": "cells [1]", "value": "> 52 µM (inactive)"}]}, {"smiles": "O=C(Nc1ccn(Cc2ccccc2)n1)c1n[nH]c([N+](=O)[O-])c1Cl", "values": [{"measurement": "EC50", "setting": "[2]", "value": "> 260 µM (inconclusive)"}, {"measurement": "IC50", "setting": "[3]", "value": "4.37 µM (active)"}, {"measurement": "EC50", "setting": "[4]", "value": "> 67.5 µM (inactive)"}]}, {"smiles": "Cn1c(NC(=O)CCc2ccccc2)cc(=O)n(C)c1=O", "values": [{"measurement": "EC50", "setting": "[5]", "value": "4.41 µM (inconclusive)"}, {"measurement": "EC50", "setting": "H4", "value": "9.93 µM (active)"}, {"measurement": "EC50", "setting": "[4]", "value": "> 67.5 µM (inactive)"}]}, {"smiles": "CC(=O)c1sc(N/N=C\\c2ccc(N(C)C)cc2)nc1C", "values": [{"measurement": "IC50", "setting": "Caspase-3", "value": "9.56 µM (active)"}, {"measurement": "IC50", "setting": "[6]", "value": "3.05 µM (active)"}, {"measurement": "IC50", "setting": "[7]", "value": "3.82 µM (active)"}, {"measurement": "IC50", "setting": "[8]", "value": "4.08 µM (active)"}, {"measurement": "AC50", "setting": "cells [9]", "value": "> 52 µM (inactive)"}]}]}
